{"source": "patent US12584896B2", "about": "“Process for quantification of metal amino acid chelates in solutions and solids” (Premex, Inc., priority 2018, dated 2026)", "assay": "pKa's of phytic acid (ionization of phosphate groups)", "type": "physicochemical", "text": "A liquid sample was reacted with phytic acid. The reaction between the compounds and the phytic acid was at a pH of 3.0. Phytic acid ionization began via phosphates group in the following order: (a) P1, and P3 at a pH of from about 1.5 to about 2.0; (b) P4 and P6 at a pH of from about 2.0 to about 2.5; (c) P2 and at a pH of about 2 .5; and (d) P5 at a pH of from about 3.0 to about 5.0 (see FIGS. 1 and 2).", "data": [{"smiles": "O=P(O)(O)O[C@H]1[C@H](OP(=O)(O)O)[C@@H](OP(=O)(O)O)[C@H](OP(=O)(O)O)[C@@H](OP(=O)(O)O)[C@H]1OP(=O)(O)O", "note": "[phytic acid]", "values": [{"measurement": "pKa", "result": 9.3}]}]}
